Series [1] concerns the target T1, Protein cereblon/Poly [ADP-ribose] polymerase 1 (Homo sapiens, UniProt P09874+Q96SW2). Kind of series: PROTAC activity at CRBN/PARP1 in human HCT-116 cells assessed as degradation of PARP1. The class given is cell-based.
Target sequence in this assay (P09874 whole entry): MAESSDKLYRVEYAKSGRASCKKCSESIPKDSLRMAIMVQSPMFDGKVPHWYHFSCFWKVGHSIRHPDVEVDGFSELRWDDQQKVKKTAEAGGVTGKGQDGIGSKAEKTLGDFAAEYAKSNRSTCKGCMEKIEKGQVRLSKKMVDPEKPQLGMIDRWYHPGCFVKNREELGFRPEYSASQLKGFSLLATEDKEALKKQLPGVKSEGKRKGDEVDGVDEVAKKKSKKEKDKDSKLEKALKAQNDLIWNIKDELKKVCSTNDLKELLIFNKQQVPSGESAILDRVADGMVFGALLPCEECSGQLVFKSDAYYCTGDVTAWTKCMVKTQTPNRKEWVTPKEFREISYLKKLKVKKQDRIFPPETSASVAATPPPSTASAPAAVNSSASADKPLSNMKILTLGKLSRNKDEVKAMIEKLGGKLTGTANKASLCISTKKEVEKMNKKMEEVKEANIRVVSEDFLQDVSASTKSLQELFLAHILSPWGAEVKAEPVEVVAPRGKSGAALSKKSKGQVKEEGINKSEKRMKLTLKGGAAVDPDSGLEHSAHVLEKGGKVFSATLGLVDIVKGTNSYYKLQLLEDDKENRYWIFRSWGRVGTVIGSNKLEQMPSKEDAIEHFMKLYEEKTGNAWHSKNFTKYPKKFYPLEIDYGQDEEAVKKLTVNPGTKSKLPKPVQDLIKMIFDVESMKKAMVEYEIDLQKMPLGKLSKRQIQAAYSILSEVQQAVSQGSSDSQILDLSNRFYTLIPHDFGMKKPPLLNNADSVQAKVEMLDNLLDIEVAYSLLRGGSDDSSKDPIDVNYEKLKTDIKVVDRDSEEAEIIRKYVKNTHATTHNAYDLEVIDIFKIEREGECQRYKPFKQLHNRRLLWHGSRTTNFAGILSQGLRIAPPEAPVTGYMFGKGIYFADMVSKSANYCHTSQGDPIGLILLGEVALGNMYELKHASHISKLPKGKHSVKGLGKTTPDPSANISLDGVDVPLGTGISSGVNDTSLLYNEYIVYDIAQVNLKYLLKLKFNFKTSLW
Target sequence in this assay (Q96SW2 whole entry): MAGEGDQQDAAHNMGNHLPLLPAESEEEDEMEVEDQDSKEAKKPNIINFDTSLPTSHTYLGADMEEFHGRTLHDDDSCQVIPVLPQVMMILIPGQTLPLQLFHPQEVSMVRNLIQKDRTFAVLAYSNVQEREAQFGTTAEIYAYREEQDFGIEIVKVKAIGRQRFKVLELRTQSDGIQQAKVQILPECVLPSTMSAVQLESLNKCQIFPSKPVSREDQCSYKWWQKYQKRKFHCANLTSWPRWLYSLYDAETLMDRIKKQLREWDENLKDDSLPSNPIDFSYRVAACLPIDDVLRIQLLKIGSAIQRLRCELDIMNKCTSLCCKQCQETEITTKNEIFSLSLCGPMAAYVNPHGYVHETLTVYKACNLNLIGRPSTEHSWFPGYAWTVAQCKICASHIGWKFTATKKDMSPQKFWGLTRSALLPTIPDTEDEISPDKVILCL
Series [2] has as its target T1, Protein cereblon/Poly [ADP-ribose] polymerase 1. Kind of series: PROTAC activity at CRBN/PARP1 in human HCT-116 cells assessed as maximum degradation of PARP1 relative to control. It counts as cell-based.
Target sequence in this assay (P09874 2-1014 limits assumed): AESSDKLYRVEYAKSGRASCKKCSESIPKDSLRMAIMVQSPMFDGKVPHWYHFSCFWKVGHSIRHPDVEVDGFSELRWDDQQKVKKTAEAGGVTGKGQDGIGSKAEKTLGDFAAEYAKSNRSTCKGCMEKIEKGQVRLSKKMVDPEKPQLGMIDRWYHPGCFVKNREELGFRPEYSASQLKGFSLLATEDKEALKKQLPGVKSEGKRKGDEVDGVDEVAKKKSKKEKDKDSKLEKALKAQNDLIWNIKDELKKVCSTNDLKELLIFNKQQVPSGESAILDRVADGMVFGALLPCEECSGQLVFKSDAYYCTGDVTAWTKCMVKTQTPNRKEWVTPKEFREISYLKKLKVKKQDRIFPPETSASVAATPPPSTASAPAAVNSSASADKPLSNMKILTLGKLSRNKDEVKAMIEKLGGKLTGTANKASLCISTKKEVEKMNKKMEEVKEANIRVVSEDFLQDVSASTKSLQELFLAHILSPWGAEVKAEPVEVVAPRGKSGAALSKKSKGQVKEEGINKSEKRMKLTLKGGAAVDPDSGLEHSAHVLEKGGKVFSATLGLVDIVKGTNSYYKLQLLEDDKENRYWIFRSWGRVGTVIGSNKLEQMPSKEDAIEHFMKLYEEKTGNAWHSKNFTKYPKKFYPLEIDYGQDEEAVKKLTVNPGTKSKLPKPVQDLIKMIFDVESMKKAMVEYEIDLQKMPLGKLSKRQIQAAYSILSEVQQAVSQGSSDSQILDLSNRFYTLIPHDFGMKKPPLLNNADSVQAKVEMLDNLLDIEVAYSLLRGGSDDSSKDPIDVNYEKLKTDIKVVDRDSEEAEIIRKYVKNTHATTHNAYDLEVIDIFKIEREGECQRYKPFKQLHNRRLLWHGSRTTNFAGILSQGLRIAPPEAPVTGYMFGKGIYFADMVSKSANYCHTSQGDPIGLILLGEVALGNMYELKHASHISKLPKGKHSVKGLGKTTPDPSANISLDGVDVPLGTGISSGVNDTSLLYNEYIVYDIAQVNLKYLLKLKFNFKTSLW
Target sequence in this assay (Q96SW2 whole entry partner): as the sequence (Q96SW2 whole entry) above
The subject of series [3] is SW-620. Kind of series: Cytotoxicity against human SW620 cells assessed as inhibition of cell growth measured after 72 hrs by CCK-8 method. It counts as functional, cell-based. The settings on record: SW-620, 72 h.
Series [4] deals with LoVo. Kind of series: Cytotoxicity against human LoVo cells assessed as inhibition of cell growth measured after 72 hrs by CCK-8 method. The class given is functional, cell-based. (In general: Formazan colour is commonly taken as a measure of viable cells.)
The nature of series [5]: Cytotoxicity against HEK293T cells assessed as inhibition of cell growth measured after 72 hrs by CCK-8 method. The class given is toxicity, cell-based, HEK-293T. The settings on record: human.
The nature of series [6]: Cytotoxicity against human BEAS-2B cells assessed as inhibition of cell growth measured after 72 hrs by CCK-8 method. The class given is toxicity, cell-based.
Series [7] relates to HCT-116. Kind of series: Cytotoxicity against human HCT-116 cells assessed as inhibition of cell growth measured after 72 hrs by CCK-8 method. The settings on record: HCT-116, 72 h. The class given is functional, cell-based.
In series [8] the test system is HCT-116. Kind of series: Induction of apoptosis in human HCT-116 cells assessed as viable cells at 2.5 nM measured after 72 hrs by annexin V/FITC and PI staining based flow cytometry analysis (reference value: 89.6%). It counts as functional. The settings on record: read-out: Activity. (In flow cytometry, cells or beads pass a laser one at a time.)
In series [9] the test system is HCT-116. Kind of series: Induction of apoptosis in human HCT-116 cells assessed as early apoptotic cells at 2.5 nM measured after 72 hrs by annexin V/FITC and PI staining based flow cytometry analysis (reference value: 3.43%). The class given is functional.
Series [10] has as its system HCT-116. Kind of series: Induction of apoptosis in human HCT-116 cells assessed as late apoptotic cells at 2.5 nM measured after 72 hrs by annexin V/FITC and PI staining based flow cytometry analysis (reference value: 6.80%). It counts as functional.
For series [11], the system named is HCT-116. Kind of series: Induction of apoptosis in human HCT-116 cells assessed as necrotic cells at 2.5 nM measured after 72 hrs by annexin V/FITC and PI staining based flow cytometry analysis (reference value: 0.16%). The class given is functional.

The term DC50 denotes the midpoint of the concentration-degradation curve. For orientation: Emax means the maximal effect, on the per cent scale that the assay sets. What is called IC50 is the point on the concentration scale where inhibition reaches its midpoint.

Where only a bound is given, the exact number is not on record here.

As for `NC(=O)c1cccc2cn(-c3ccc([C@@H]4CCCN(C(=O)CCCCNc5ccc6c(c5)C(=O)N(C5CCC(=O)NC5=O)C6=O)C4)cc3)nc12` (some centres undefined), in series [1], the DC50 is greater than 20 µM. The Emax in series [2] was 29.8%.
The matching figures for `NC(=O)c1cccc2cn(-c3ccc([C@@H]4CCCN(C(=O)CC5CCN(CCC6CCN(CC7CCN(c8ccc9c(c8)C(=O)N(C8CCC(=O)NC8=O)C9=O)CC7)CC6)CC5)C4)cc3)nc12` (some centres undefined): 0.04 µM and 57.1%.
As for `NC(=O)c1cccc2cn(-c3ccc([C@@H]4CCCN(C(=O)CC5CCN(C(=O)CC6CCN(CC7CN(c8ccc9c(c8)C(=O)N(C8CCC(=O)NC8=O)C9=O)C7)CC6)CC5)C4)cc3)nc12` (some centres undefined), in [1], the 50% degradation concentration (DC50) amounted to 16.3 µM. The Emax in series [2] came out at 47.6%.
`NC(=O)c1cccc2cn(-c3ccc([C@@H]4CCCN(C(=O)CC5CCN(C(=O)CC6CCN(CC7CCN(c8ccc9c(c8)C(=O)N(C8CCC(=O)NC8=O)C9=O)CC7)CC6)CC5)C4)cc3)nc12` (some centres undefined): the DC50 in series [1] is 0.23 µM. The Emax in [2] came to 65.1%.
On to `NC(=O)c1cccc2cn(-c3ccc([C@@H]4CCCN(C(=O)CC5CCN(CC6CCN(c7ccc8c(c7)C(=O)N(C7CCC(=O)NC7=O)C8=O)C6)CC5)C4)cc3)nc12` (some centres undefined), for which the DC50 in series [1] is greater than 20 µM.
For the molecule `NC(=O)c1cccc2cn(-c3ccc([C@@H]4CCCN(C(=O)CC5CCN(CCC6CCN(CC7CCN(c8ccc9c(c8)C(=O)N(C8CCC(=O)NC8=O)C9=O)C7)CC6)CC5)C4)cc3)nc12` (some centres undefined), the DC50 in series [1] was greater than 20 µM. Moreover, the Emax in series [2] came to 33.6%.
For `NC(=O)c1cccc2cn(-c3ccc([C@@H]4CCCN(C(=O)CCCCCCCCNc5ccc6c(c5)C(=O)N(C5CCC(=O)NC5=O)C6=O)C4)cc3)nc12` (some centres undefined), the DC50 in [1] was 2.21 µM. In addition, the Emax in series [2] was found to be 58.8%.
Turning to `NC(=O)c1cccc2cn(-c3ccc([C@@H]4CCCN(C(=O)COCCOCCNc5ccc6c(c5)C(=O)N(C5CCC(=O)NC5=O)C6=O)C4)cc3)nc12` (some centres undefined), the half-maximal degradation concentration (DC50) in series [1] was greater than 20 µM. Also, the Emax in [2] was determined as 49.1%.
As to `O=C(CCCCCCCCCCC(=O)N1CCN(C(=O)c2cc(Cc3n[nH]c(=O)c4ccccc34)ccc2F)CC1)NCCNc1cccc2c1C(=O)N(C1CCC(=O)NC1=O)C2=O` (centres undefined), the IC50 in [3] and in [4] was greater than 10 µM in each case. Besides, the IC50 at 72 h in [5] was determined as 1.86 µM; in series [6], 3.7 µM.
Take `NC(=O)c1cccc2cn(-c3ccc([C@@H]4CCCN(C(=O)CC5CCN(C(=O)C6CCN(c7ccc8c(c7)C(=O)N(C7CCC(=O)NC7=O)C8=O)CC6)CC5)C4)cc3)nc12` (some centres undefined): in [1], the DC50 was greater than 20 µM. The Emax in series [2] stood at 35.6%.
As for `NC(=O)c1cccc2cn(-c3ccc([C@@H]4CCCN(C(=O)CC5CCN(C(=O)CC6CCN(C(=O)C7CCN(c8ccc9c(c8)C(=O)N(C8CCC(=O)NC8=O)C9=O)CC7)CC6)CC5)C4)cc3)nc12` (some centres undefined), the DC50 in [1] is greater than 20 µM. Further, the Emax in [2] stood at 6.96%.
As for `NC(=O)c1cccc2cn(-c3ccc([C@@H]4CCCN(C(=O)C5CCN(CC6CCN(c7ccc8c(c7)C(=O)N(C7CCC(=O)NC7=O)C8=O)C6)CC5)C4)cc3)nc12` (some centres undefined), the 50% degradation concentration (DC50) in series [1] was greater than 20 µM. Also, in [2], the Emax stood at 32.8%.
Consider `NC(=O)c1cccc2cn(-c3ccc([C@@H]4CCCN(C(=O)CC5CCN(CC6CN(c7ccc8c(c7)C(=O)N(C7CCC(=O)NC7=O)C8=O)C6)CC5)C4)cc3)nc12` (some centres undefined), for which, in series [1], the DC50 was greater than 20 µM. The Emax in [2] worked out at 31.8%.
For `NC(=O)c1cccc2cn(-c3ccc([C@@H]4CCCN(C(=O)C5CCN(CC6CCN(c7ccc8c(c7)C(=O)N(C7CCC(=O)NC7=O)C8=O)CC6)CC5)C4)cc3)nc12` (some centres undefined) the same measures were greater than 20 µM and 30.2%.
For `NC(=O)c1cccc2cn(-c3ccc([C@@H]4CCCN(C(=O)C5CCN(CC6CN(c7ccc8c(c7)C(=O)N(C7CCC(=O)NC7=O)C8=O)C6)CC5)C4)cc3)nc12` (some centres undefined) the same measures were 19 µM and 53.9%.
With `NC(=O)c1cccc2cn(-c3ccc([C@@H]4CCCN(C(=O)CC5CCN(CCC6CCN(c7ccc8c(c7)C(=O)N(C7CCC(=O)NC7=O)C8=O)CC6)CC5)C4)cc3)nc12` (some centres undefined), in series [1], the DC50 is greater than 20 µM. The Emax in series [2] is 30.1%.
Turning to `NC(=O)c1cccc2cn(-c3ccc([C@@H]4CCCN(C(=O)CCCCCCNc5ccc6c(c5)C(=O)N(C5CCC(=O)NC5=O)C6=O)C4)cc3)nc12` (some centres undefined), the DC50 in [1] is greater than 20 µM. The Emax in [2] stood at 37.3%.
With `NC(=O)c1cccc2cn(-c3ccc([C@@H]4CCCN(C(=O)CC5CCN(C(=O)CC6CCN(CC7CCN(c8ccc9c(c8)C(=O)N(C8CCC(=O)NC8=O)C9=O)C7)CC6)CC5)C4)cc3)nc12` (some centres undefined), in series [1], the DC50 came to 20.1 µM. In series [2], the Emax was 49.8%.
As to `NC(=O)c1cccc2cn(-c3ccc([C@@H]4CCCN(C(=O)COCCOCCOCCNc5ccc6c(c5)C(=O)N(C5CCC(=O)NC5=O)C6=O)C4)cc3)nc12` (some centres undefined), the DC50 in [1] was greater than 20 µM. Besides, in series [2], the Emax is 37.4%.
Consider `NC(=O)c1cccc2cn(-c3ccc([C@@H]4CCCNC4)cc3)nc12` [NIRAPARIB], for which the IC50 in series [3] came out at 0.49 µM.
Take `NC(=O)c1cccc2cn(-c3ccc([C@@H]4CCCN(CCC5CCN(CCC6CCN(CC7CN(c8ccc9c(c8)C(=O)N(C8CCC(=O)NC8=O)C9=O)C7)CC6)CC5)C4)cc3)nc12` (some centres undefined): the DC50 in [1] turned out to be 0.03 µM. For the same molecule, the Emax in [2] is 71%.
On to `NC(=O)c1cccc2cn(-c3ccc([C@@H]4CCCN(C(=O)CC5CCN(CCC6CCN(CC7CN(c8ccc9c(c8)C(=O)N(C8CCC(=O)NC8=O)C9=O)C7)CC6)CC5)C4)cc3)nc12` (some centres undefined), for which, in series [1], the DC50 was determined as 0.5 µM. In addition, the Emax in series [2] came to 83.6%.
With `NC(=O)c1cccc2cn(-c3ccc([C@@H]4CCCN(C(=O)C5CCN(C(=O)C6CCN(c7ccc8c(c7)C(=O)N(C7CCC(=O)NC7=O)C8=O)CC6)CC5)C4)cc3)nc12` (some centres undefined), the DC50 in series [1] was greater than 20 µM. Besides, the Emax in series [2] stood at 15.7%.
Turning to `CCc1c2c(nc3ccc(O)cc13)-c1cc3c(c(=O)n1C2)COC(=O)[C@]3(O)CC` [7-ETHYL-10-HYDROXYCAMPTOTHECIN], the half-inhibitory concentration (IC50) in series [4] and in series [7] was 0.0029 µM in each case. For the same molecule, the viability at 0.0025 µM in series [8] was found to be 76.7%. The Activity was 5.48% in series [9], 17.1% in series [10] and 0.77% in series [11].
Consider `NC(=O)c1cccc2cn(-c3ccc([C@@H]4CCCN(C(=O)COCCOCCOCCOCCOCCNc5ccc6c(c5)C(=O)N(C5CCC(=O)NC5=O)C6=O)C4)cc3)nc12` (some centres undefined), for which the DC50 in [1] was found to be 19.1 µM. Also, the Emax in [2] was 47.7%.
Regarding `NC(=O)c1cccc2cn(-c3ccc([C@@H]4CCCN(C(=O)CC5CCN(C(=O)CC6CCN(c7ccc8c(c7)C(=O)N(C7CCC(=O)NC7=O)C8=O)CC6)CC5)C4)cc3)nc12` (some centres undefined), the half-maximal degradation concentration (DC50) in series [1] is greater than 20 µM.
For the molecule `NC(=O)c1cccc2cn(-c3ccc([C@@H]4CCCN(C(=O)CC5CCN(CC6CCN(c7ccc8c(c7)C(=O)N(C7CCC(=O)NC7=O)C8=O)CC6)CC5)C4)cc3)nc12` (some centres undefined), the DC50 in series [1] was 15.6 µM. For the same molecule, the Emax in series [2] was 59.4%.
For the molecule `NC(=O)c1cccc2cn(-c3ccc([C@@H]4CCCN(C(=O)COCCOCCOCCOCCNc5ccc6c(c5)C(=O)N(C5CCC(=O)NC5=O)C6=O)C4)cc3)nc12` (some centres undefined), the DC50 in series [1] stood at 0.06 µM. The Emax in series [2] turned out to be 78.9%.

These data come from ChEMBL document CHEMBL6120985, “Discovery of a potent PARP1 PROTAC as a chemosensitizer for the treatment of colorectal cancer” (Eur J Med Chem, 2025).
